Consider 1 compound from US20220128557A1, “[…] METHODS FOR REAL-TIME CELL MONITORING” (PHENOFAST LTD., priority 2019, published 2022).

The test system of this assay is E. coli. In words: Classical method of serial antibiotic dilution for MIC. In kind it is cell-based. Particulars: FIG. 7E. As to the method:
FIGS. 7A-7E: (7A-7D) Scatter plots, with best fit lines of optical output measured by intensity shift as a function of time, performed on a series of 6 semi-stable sucrose coated grating units in parallel inoculated with E. coli cells and treated an hour later with (7A) 0 μg, (7B) 2.5 μg, (7C) 5.0 μg, and (7D) 7.5 μg of G418. (7E) A photograph of the classical serial dilution method for determining the MIC of G418 for treating E. coli.
By monitoring the diffraction over time, a range for minimum inhibitory concentration (MIC) was established (FIG. 7A-D). A control well received no antibiotic and normal logarithmic growth was observed (FIG. 7A). […] This would place the MIC at between 2.5 and 5.0 which was the same as the range (2.3-4.7 μg) found by the classical method of serial antibiotic dilution (FIG. 7E).

Turning to `CN[C@@H]1[C@@H](O)[C@@H](O[C@@H]2[C@@H](O)[C@H](O[C@H]3O[C@H]([C@@H](C)O)[C@@H](O)[C@H](O)[C@H]3N)[C@@H](N)C[C@H]2N)OC[C@]1(C)O` [G418], the “MIC range found by classical serial antibiotic dilution” value was 2.3 to 4.7 µg.
